Results reported in patent publication US20080262097A1, “Formulations” (priority 2005, published 2008).
≈ marks a conversion by molar mass, not a printed value. Read-outs that look alike come from different tables or passages of the source.

Key:
Type in all cases: cell-based
[1] = system: Staphylococcus aureus ATCC 12600; experiment: MBC assay; conditions: ATCC12600
Method: (§1) The staphylococci and enterococci were cultured and maintained on Mueller-Hinton Medium (agar and broth) at pH 7.2; they were incubated aerobically at 37° C. for 24 hours.
(§2) This assay, normally carried out after an MIC assay, determines the minimum concentration of a compound that is lethal to the micro-organism being tested.
(§3) These samples were then individually sub-cultured on non-selective agar medium, under the incubation conditions described above. Following incubation they were examined visually for bacterial growth.

[2] = system: Staphylococcus warneri ATCC 27836; experiment: MBC assay; conditions: ATCC27836
Method: as §1, §2, §3

S. aureus ATCC 12602 = experiment: MBC assay; conditions: Staphylococcus aureus, ATCC12602
Method: as §1, §2, §3

[3] = system: Staphylococcus auricularis ATCC 33753; experiment: MBC assay; conditions: ATCC33753
Method: as §1, §2, §3

S. aureus ATCC 25923 = experiment: MBC assay; conditions: Staphylococcus aureus, ATCC25923
Method: as §1, §2, §3

S. aureus ATCC 12607 = experiment: MBC assay; conditions: Staphylococcus aureus, ATCC12607
Method: as §1, §2, §3

[4] = system: S. saprophyticus NCTC 7292; experiment: MBC assay; conditions: Staphylococcus saprophyticus, NCTC7292
Method: as §1, §2, §3

S. aureus ATCC 12606 = experiment: MBC assay; conditions: Staphylococcus aureus, ATCC12606
Method: as §1, §2, §3

S. aureus ATCC 12605 = experiment: MBC assay; conditions: Staphylococcus aureus, ATCC12605
Method: as §1, §2, §3

[5] = system: S. aureus CPHL GISA HO41340156; experiment: MBC assay; conditions: Staphylococcus aureus
Method: as §1, §2, §3

[6] = system: Staphylococcus xylosus ATCC 29971; experiment: MBC assay; conditions: ATCC29971
Method: as §1, §2, §3

S. aureus CPHL VISA Mu3 = experiment: MBC assay; conditions: Staphylococcus aureus
Method: as §1, §2, §3

S. aureus ATCC 12600-U = experiment: MBC assay; conditions: Staphylococcus aureus, ATCC12600
Method: as §1, §2, §3

[7] = system: Staphylococcus capitis ATCC 27840; experiment: MBC assay; conditions: ATCC27840
Method: as §1, §2, §3

[8] = system: Staphylococcus simulans ATCC 27848; experiment: MBC assay; conditions: ATCC27848
Method: as §1, §2, §3

S. aureus CPHL EMRSA 17 = experiment: MBC assay; conditions: Staphylococcus aureus
Method: as §1, §2, §3

S. aureus ATCC 12604 = experiment: MBC assay; conditions: Staphylococcus aureus, ATCC12604
Method: as §1, §2, §3

[9] = system: Staphylococcus cohnii ATCC 29974; experiment: MBC assay; conditions: ATCC29974
Method: as §1, §2, §3

S. aureus CPHL VISA Mu50 = experiment: MBC assay; conditions: Staphylococcus aureus
Method: as §1, §2, §3

[10] = system: S. epidermidis (NCTC 11047); experiment: MBC assay; conditions: Staphylococcus epidermidis, NCTC11047
Method: as §1, §2, §3

S. aureus ATCC 12601 = experiment: MBC assay; conditions: Staphylococcus aureus, ATCC12601
Method: as §1, §2, §3

[11] = system: Staphylococcus hominis ATCC 27844; experiment: MBC assay; conditions: ATCC27844
Method: as §1, §2, §3

[12] = system: Staphylococcus haemolyticus ATCC 29970; experiment: MBC assay; conditions: ATCC29970
Method: as §1, §2, §3

[13] = system: Staphylococcus hominis ATCC 27844; experiment: Disc diffusion assay (DDA); conditions: zone diameter, 200 μg per disc
Method: as §1
(§4) A sterile paper disc was impregnated with a sample of the test compound and a minimum of 30 minutes allowed for the solvents to evaporate as far as possible. The disc was then placed on an agar plate onto which the test micro-organism had been inoculated. The plate was then incubated under the conditions described above, following which it was examined visually for signs of bacterial growth. If the test compound had antimicrobial activity, a circular zone of no growth would be obtained around the disc. The diameter of this zone of “inhibition” was measured using a ProtoCOL™ automated zone sizer (Synbiosis, Cambridge, UK). In general, a greater diameter and/or area of the zone of inhibition indicates a greater antimicrobial activity in the relevant test compound, although other factors such as test compound mobility through the agar gel may also influence the result.
(§5) The area of the zone of inhibition was calculated from the measured zone diameter (D) using the formula π(D/2)^2.

[14] = system: Staphylococcus haemolyticus ATCC 29970; experiment: Disc diffusion assay (DDA); conditions: zone diameter, 200 μg per disc
Method: as §1, §4, §5

CC(C)(C)c1cc(O)ccc1O [TBHQ, t-butyl hydroquinone]
MBC ([1]; Staphylococcus aureus): 7.8 µg/mL (≈ 46.9 µM) | MBC ([2]; Staphylococcus warneri): 7.8 µg/mL (≈ 46.9 µM) | MBC (S. aureus ATCC 12602): 7.8 µg/mL (≈ 46.9 µM) | MBC [3]: 1.95 µg/mL (≈ 11.7 µM) | MBC (S. aureus ATCC 25923): 7.8 µg/mL (≈ 46.9 µM) | MBC (S. aureus ATCC 12607): 3.9 µg/mL (≈ 23.5 µM) | MBC [4]: 7.8 µg/mL (≈ 46.9 µM) | MBC (S. aureus ATCC 12606): 7.8 µg/mL (≈ 46.9 µM) | MBC (S. aureus ATCC 12605): 3.9 µg/mL (≈ 23.5 µM) | MBC [5]: 15.6 µg/mL (≈ 93.9 µM) | MBC ([6]; Staphylococcus xylosus): 15.6 µg/mL (≈ 94 µM) | MBC (S. aureus CPHL VISA Mu3): 7.8 µg/mL (≈ 46.9 µM) | MBC (S. aureus ATCC 12600-U): 7.8 µg/mL (≈ 46.9 µM) | MBC [7]: 3.9 µg/mL (≈ 23.5 µM) | MBC ([8]; Staphylococcus simulans): 31.2 µg/mL (≈ 188 µM) | MBC (S. aureus CPHL EMRSA 17; S. aureus CPHL EMRSA 17 (resistance Met/β-lactams), read-out: MBC): 3.9 µg/mL (≈ 23.5 µM) | MBC (S. aureus ATCC 12604): 7.8 µg/mL (≈ 46.9 µM) | MBC [9]: 7.8 µg/mL (≈ 46.9 µM) | MBC (S. aureus CPHL VISA Mu50; VISA): 7.8 µg/mL (≈ 46.9 µM) | MBC [10]: 7.8 µg/mL (≈ 46.9 µM) | MBC (S. aureus ATCC 12601): 15.6 µg/mL (≈ 93.9 µM) | MBC [11]: 3.9 µg/mL (≈ 23.5 µM) | MBC ([12]; Staphylococcus haemolyticus): 7.8 µg/mL (≈ 46.9 µM) | DDA [13]: 64.59 mm | DDA [14]: 51.08 mm

O=C(OOC(=O)c1ccccc1)c1ccccc1 [benzoyl peroxide]
MBC ([1]; Staphylococcus aureus ATCC 12600, read-out: MBC): 250 µg/mL (≈ 1030 µM) | MBC ([2]; Staphylococcus warneri ATCC 27836, read-out: MBC): > 250 µg/mL | MBC (S. aureus ATCC 12602): 125 µg/mL (≈ 516 µM) | MBC [3]: 62.5 µg/mL (≈ 258 µM) | MBC (S. aureus ATCC 25923; S. aureus ATCC 25923, read-out: MBC): 250 µg/mL (≈ 1030 µM) | MBC (S. aureus ATCC 12607): 250 µg/mL (≈ 1030 µM) | MBC ([4]; S. saprophyticus NCTC 7292, read-out: MBC): > 250 µg/mL | MBC (S. aureus ATCC 12606; S. aureus ATCC 12606, read-out: MBC): 250 µg/mL (≈ 1030 µM) | MBC (S. aureus ATCC 12605): 250 µg/mL (≈ 1030 µM) | MBC ([5]; S. aureus CPHL GISA HO41340156 (Van/Tec intermediate), read-out: MBC): 250 µg/mL (≈ 1030 µM) | MBC ([6]; Staphylococcus xylosus ATCC 29971, read-out: MBC): 250 µg/mL (≈ 1030 µM) | MBC (S. aureus CPHL VISA Mu3): 125 to 250 µg/mL (≈ 516 to 1030 µM) | MBC (S. aureus ATCC 12600-U; S. aureus ATCC 12600-U, read-out: MBC): > 250 µg/mL | MBC [7]: 250 µg/mL (≈ 1030 µM) | MBC ([8]; Staphylococcus simulans ATCC 27848, read-out: MBC): > 250 µg/mL | MBC (S. aureus CPHL EMRSA 17): 125 to 250 µg/mL (≈ 516 to 1030 µM) | MBC (S. aureus ATCC 12604; S. aureus ATCC 12604, read-out: MBC): 250 µg/mL (≈ 1030 µM) | MBC [9]: 125 µg/mL (≈ 516 µM) | MBC (S. aureus CPHL VISA Mu50; S. aureus CPHL VISA Mu50 (Van intermediate), read-out: MBC): 250 µg/mL (≈ 1030 µM) | MBC ([10]; S. epidermidis NCTC 11047, read-out: MBC): 250 µg/mL (≈ 1030 µM) | MBC (S. aureus ATCC 12601; S. aureus ATCC 12601, read-out: MBC): 250 µg/mL (≈ 1030 µM) | MBC [11]: 250 µg/mL (≈ 1030 µM) | MBC ([12]; Staphylococcus haemolyticus ATCC 29970, read-out: MBC): 250 µg/mL (≈ 1030 µM) | DDA [13]: 11.83 mm | DDA [14]: 11.10 mm
